Peptide text beside a SMILES is read from it. * marks the point of attachment. Tyr(Nα,Nα-Bn2) = O=C([C@H](Cc1ccc(O)cc1)N(Cc1ccccc1)Cc1ccccc1)*; Tyr(Nα,Nα-allyl2) = C=CCN(CC=C)[C@@H](Cc1ccc(O)cc1)C(=O)*; X4 = O=C([C@H](Cc1ccc(O)cc1)N(CCc1ccccc1)CCc1ccccc1)*; X5 = CCCCCCCCN(CCCCCCCC)[C@@H](Cc1ccc(O)cc1)C(=O)*; X3 = O=C([C@H](Cc1ccc(O)cc1)N(CC1CC1)CC1CC1)*; X1 = CCCCCN(CCCCC)[C@@H](Cc1ccc(O)cc1)C(=O)*; X2 = CCCN(CCC)[C@@H](Cc1ccc(O)cc1)C(=O)*
Assays:
Mus musculus = species on record: Mus musculus; test: Agonistic activity was measured on the electrically stimulated longitudinal muscle of the mouse vas deferens (MVD) at 1 uM concentration; settings: Muscle tissue
Cavia porcellus = species on record: Cavia porcellus; test: Agonistic activity was measured on the electrically stimulated longitudinal muscle of the guinea pig ileum (GPI) at 1 uM concentration; settings: Muscle tissue

Compound | inhibition at 1 µM (Mus musculus) | inhibition at 1 µM (Cavia porcellus)
CCCN(CCC)[C@@H](Cc1ccc(O)cc1)C(=O)NCC(=O)NCC(=O)N[C@@H](Cc1ccccc1)C(=O)N[C@@H](CC(C)C)C(=O)O (X2-GGFL-OH) | 11.9% | -2.6%
CC(C)C[C@H](NC(=O)[C@H](Cc1ccccc1)NC(=O)CNC(=O)CNC(=O)[C@H](Cc1ccc(O)cc1)N(CCc1ccccc1)CCc1ccccc1)C(=O)O (X4-GGFL-OH) | 60.5% | 14.7%
C=CCN(CC=C)[C@@H](Cc1ccc(O)cc1)C(=O)NCC(=O)NCC(=O)N[C@@H](Cc1ccccc1)C(=O)N[C@@H](CC(C)C)C(=O)O ({Tyr(Nα,Nα-allyl2)}-GGFL-OH) | 10% | -6.7%
CC(C)C[C@H](NC(=O)[C@H](Cc1ccccc1)NC(=O)CNC(=O)CNC(=O)[C@H](Cc1ccc(O)cc1)N(CC1CC1)CC1CC1)C(=O)O (X3-GGFL-OH) | 27.3% | 2.2%
CC(C)C[C@H](NC(=O)[C@H](Cc1ccccc1)NC(=O)CNC(=O)CNC(=O)[C@H](Cc1ccc(O)cc1)N(Cc1ccccc1)Cc1ccccc1)C(=O)O ({Tyr(Nα,Nα-Bn2)}-GGFL-OH) | 11.4% | 1.9%
CCCCCCCCN(CCCCCCCC)[C@@H](Cc1ccc(O)cc1)C(=O)NCC(=O)NCC(=O)N[C@@H](Cc1ccccc1)C(=O)N[C@@H](CC(C)C)C(=O)O (X5-GGFL-OH) | 39.2% | 8.1%
CCCCCN(CCCCC)[C@@H](Cc1ccc(O)cc1)C(=O)NCC(=O)NCC(=O)N[C@@H](Cc1ccccc1)C(=O)N[C@@H](CC(C)C)C(=O)O (X1-GGFL-OH) | 20.4% | 15.9%

Reference: ChEMBL document CHEMBL1123869, “N,N-dialkylated leucine enkephalins as potential delta opioid receptor antagonists” (1987)
